According to patent US20140378531A1, “INHIBITION OF PATTERN RECOGNITION RECEPTORS IN PANCREATIC CANCER TREATMENT USING TLR INHIBITORS” (NEW YORK UNIVERSITY, priority 2012, published 2014):

Legend:
Type in all cases: in vivo
[1] = L-arginine induced pancreatic injury; details: WT mice, L-arginine for one week
MAP Kinase = MAP Kinase or NF-κB blockade in caerulein + ssRNA40 pancreatitis; details: mice, caerulein for 3 weeks + ssRNA40 + pathway blockade
Procedure: FIG. 15. TLR7 agonists exacerbate pancreatic inflammation via NF-κB and MAP Kinase dependent mechanisms. Mice were treated for 3 weeks with caerulein to induce pancreatitis.
In vivo TLR7 ligation was accomplished by thrice weekly i.p administration of selective TLR7 agonists (ssRNA40, E. coli RNA, or Adenine analogue, all 100 μg/kg; Invivogen, San Diego, Calif.). TLR7 blockade was accomplished using an oligonucleotide inhibitor of TLR7 (Guiducci et al., 2010) (IRS661, 100 μg, 3× per week; Dynavax, Berkeley, Calif.). Bone marrow chimeric animals were created by irradiating mice ([…]) followed by i.v. bone marrow transfer (1×10^7 cells) from non-irradiated donors as described (Bedrosian et al., 2011) Chimeric mice were employed in experiments 7 weeks later. In selected experiments, to accelerate carcinogenesis in p48Cre;Kras^G12D mice, two doses of caerulein (50 μg/kg) were administered over 48 hours as described (Carriere et al., 2009). MAP Kinase signaling blockade was accomplished using the MKK inhibitor PD98059 (2.5 mg/kg/day), the p38 inhibitor SB203580 (30 mg/kg/day), or the JNK inhibitor SP600125 (50 mg/kg/day; all Invivogen). Selective NF-κB signaling blockade was accomplished using either the NEMO binding domain inhibitor (1 mg/kg/day, EMD4Biosciences, Gibbstown, N.J.) or the IkB inhibitor Bay11-7082 (1.25 mg/kg/day; Invivogen). […]

TLR7 = molecular target: T1, TLR7 (Mus musculus, UniProt P58681); assay: TLR7 blockade in caerulein-accelerated pancreatic carcinogenesis in p48Cre;Kras^G12D mice; details: caerulein 50 μg/kg, two doses over 48 hours
T1 construct: from tissue; host or cells: whole animal: p48Cre;Kras^G12D mice and WT C57BL/6 mice; TLR7 on pancreatic leukocytes and epithelial cells
T1 sequence (P58681 27-1050): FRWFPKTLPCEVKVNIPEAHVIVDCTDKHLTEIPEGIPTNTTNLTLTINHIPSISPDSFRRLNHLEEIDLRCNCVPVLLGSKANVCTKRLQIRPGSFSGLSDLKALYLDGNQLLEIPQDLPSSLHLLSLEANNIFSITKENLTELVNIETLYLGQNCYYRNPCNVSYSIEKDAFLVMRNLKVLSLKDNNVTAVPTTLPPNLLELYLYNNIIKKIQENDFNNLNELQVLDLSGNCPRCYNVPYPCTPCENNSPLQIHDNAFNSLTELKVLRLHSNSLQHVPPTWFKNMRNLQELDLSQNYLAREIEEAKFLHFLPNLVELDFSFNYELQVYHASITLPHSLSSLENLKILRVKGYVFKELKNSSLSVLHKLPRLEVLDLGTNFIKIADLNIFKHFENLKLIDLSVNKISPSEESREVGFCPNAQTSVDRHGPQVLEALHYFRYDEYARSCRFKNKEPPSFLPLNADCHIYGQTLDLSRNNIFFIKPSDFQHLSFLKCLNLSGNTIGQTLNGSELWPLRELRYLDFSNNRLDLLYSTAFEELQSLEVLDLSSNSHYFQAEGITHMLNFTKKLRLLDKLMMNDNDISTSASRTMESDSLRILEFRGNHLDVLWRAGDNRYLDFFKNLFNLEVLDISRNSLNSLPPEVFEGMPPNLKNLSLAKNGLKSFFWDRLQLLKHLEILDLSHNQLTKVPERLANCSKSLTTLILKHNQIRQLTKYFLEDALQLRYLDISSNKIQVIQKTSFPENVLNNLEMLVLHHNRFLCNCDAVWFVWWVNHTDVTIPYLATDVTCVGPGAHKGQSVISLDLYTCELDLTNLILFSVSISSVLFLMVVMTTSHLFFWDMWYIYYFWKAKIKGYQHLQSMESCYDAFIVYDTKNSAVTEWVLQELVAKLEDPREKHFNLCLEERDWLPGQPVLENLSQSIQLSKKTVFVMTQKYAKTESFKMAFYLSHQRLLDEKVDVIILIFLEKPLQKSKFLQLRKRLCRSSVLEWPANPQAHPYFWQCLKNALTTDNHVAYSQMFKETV

## N=C(N)NCCC[C@H](N)C(=O)O [L-arginine]
[1]
  pancreatic injury: induced mild pancreatic edema and inflammation

## COc1cccc(-c2cc(=O)c3ccccc3o2)c1N [PD98059]
MAP Kinase
  effects of TLR7 ligation on fibro-inflammatory pancreatic disease: protected from effects of TLR7 ligation

## caerulein
TLR7
  pancreatic histology after caerulein alone: developed invasive pancreatic adenocarcinoma within an extensive bed of fibro-inflammatory stroma
